From publication PMC1828167, “HIV-1 integrase inhibitors are substrates for the multidrug transporter MDR1-P-glycoprotein” (Retrovirology, 2007)

How the values were obtained:
HIV-1 Integrase (IN) = target: HIV-1 Integrase (IN); set-up: method as in PMID 16539381; details: HIV-1 integration strand transfer step; 50% Inhibitory Concentration; cited from earlier work
[1] = Cytotoxicity in HIV infected H9 cell line (trypan blue exclusion); type: cell-based, human; details: human, HIV-1 (HTLVIIIB) infected H9 T lymphoid cells, 50% Cytotoxic Concentration
Experimental: (§1) Anti-HIV activity was measured in the human T lymphoid H9 cells. To this purpose, cells were cultured in RPMI 1640, supplemented with 2 mM L-glutamine, penicillin, streptomycin and 10% fetal bovine serum (FBS), and infected with the HTLVIIIB laboratory strain of HIV-1 virus (100000 TCID50 – Tissue Culture Infective Dose- per 10^6 […]). After two hours of incubation, cells were washed with medium, and cultured at 37°C (5000 cells/well in 96-well microplates) for 3 days in presence of medium and test compounds at concentrations ranging from 50 μM to 0.1 μM. After 3 days p24 antigen concentration in the supernatants was measured by an ELISA assay (Innotest HIV antigen mAb, Innogenetics NV Belgium). Cell viability was determined by the trypan blue exclusion method.
(§2) The 50% inhibitory drug concentration (IC50) and the 50% cytotoxic drug concentration (CC50) were calculated by the median effect equation using Calcusyn Version 2.0 program (Biosoft Cambridge)

[2] = target: T1, MDR1-P-glycoprotein (P-gp) (Homo sapiens, UniProt P08183); assay: Doxorubicin efflux/retention in KB-V1 MDR cells (confocal microscopy); details: 25 μg/ml, 5 μg/ml doxorubicin, 1 and 3 hrs of extrusion
[3] = system: P-gp expression in CEMrev cells; assay: Induction of P-gp expression in CEMrev cells (flow cytometry); type: cell-based, human; details: for % of P-gp expressing cells: CEMrev
Description: Similarly to some of the isozymes involved in drug metabolism, the expression of P-gp is inducible. It is therefore important to assess whether P-gp induction occurs upon exposure to IINs, with potential implications for drug metabolism. To this aim, we investigated whether the treatment with the IINs RDS 1974, RDS 1983, RDS 1984 and RDS 1996, all having different biological and physicochemical properties (Table 1), modulate P-gp expression in the human CD4+ CEM cell system. The parental drug sensitive CEM cell line and the revertant of its derivative CEM-VBL10 MDR cell variant (CEMrev), expressing very low or undetectable amount of P-gp, were cultured in the presence of the indicated IINs ([…]; 25 μg/ml for RDS 1983 and RDS 1984) for 28 days (RDS 1983, RDS 1984 and RDS 1996) or 104 days (RDS 1974). As a control for P-gp modulation, CEMrev cells were exposed to VBL, shown to increase P-gp expression.
The multidrug resistant (MDR) variants CEM-VBL10 and CEM-VBL100 cells were isolated by stepwise selection of the parental drug sensitive CCRF-CEM (CEM) in the presence of increasing concentrations of VBL [31, 32]. Cells were grown under standard conditions for mammalian cells cultured in suspension. The basic medium (BM) for cell culturing consisted of RPMI-1640 supplemented with 10% foetal calf serum (FCS), L-glutamine (2 mM) penicillin (100 U/mL) and streptomycin (100 U/mL). All these components were purchased from Hyclone (Logan, Utah). Identical BM, culture conditions and trypsin (Hyclone) were used for the adherent MDR variant KB.V1 of the human oral epidermoid carcinoma KB cells. To test the ability of selected IINs (RDS 1974, […], RDS 1984 and RDS 1996) to induce de novo expression of P-glycoprotein, the drug-sensitive CEMrev cell line was used; this cell line derives from the CEM-VBL10 MDR cell line, cultured for more than 2 years in VBL-free medium and expresses very low (1–3%) or undetectable amounts of P-gp.
(§3) The anti CD4-FITC mAb was purchased from Vinci Biochem, Firenze, Italy. The mAb UIC2 [30] was kindly provided by Dr. E. Mechetner (Chemicon Inc, Temecula, CA). For determination of P-gp expression, the mAb MM4.17, recognizing an extracellular P-gp epitope on intact/living human MDR cells, was also used. Both UIC2 and MM4.17 mAbs were used in a highly purified form.

[4] = target: T1, MDR1-P-glycoprotein (P-gp); assay: MDR efflux assay: doxorubicin efflux inhibition in CEM-VBL100 cells (flow cytometry); type: cell-based; set-up: CEM-VBL10 and CEM-VBL100 cells were isolated by stepwise selection of the parental drug sensitive CCRF-CEM (CEM) in the presence of increasing concentrations of VBL; endogenous in cells; host or cells: CEM-VBL10 (UIC2 shift assay) and CEM-VBL100 (doxorubicin efflux assay), MDR variants of CCRF-CEM; key to Doxorubicin efflux inhibition (B): the + or ++ symbols indicate arbitrary units in measuring and differentiating the level of UIC2 epitope modulation and doxorubicin retention; the + or ++ symbols indicate arbitrary units in measuring and differentiating the level of UIC2 epitope modulation and doxorubicin retention; details: for Doxorubicin efflux inhibition (B): CEM-VBL100 cells
Experimental: […] The cells were incubated with doxorubicin (10 μg/ml) only or drug diluent in parallel cultures. At the end of incubation, the cells were washed in serum-free medium and resuspended in BM in the presence of the IINs or Verapamil (drug diluent was added in control samples) for a further 1 h at 37°C. Finally, cells were washed twice with ice-cold PBS/FACS, and analyzed in a flow cytometer (FACScan, Becton Dickinson, San Josè, CA).

[5] = system: HTLVIIIB laboratory strain of HIV-1 virus; assay: Anti-HIV activity in HIV-infected H9 cells (p24 antigen ELISA); type: cell-based; details: HIV infected H9 cell line, 3 days, 50% Effective Concentration
Experimental: as §1, §2

[6] = target: T1, MDR1-P-glycoprotein (P-gp); assay: UIC2 shift assay (P-gp functional conformation) in CEM-VBL10 cells; type: cell-based; set-up: CEM-VBL10 and CEM-VBL100 cells were isolated by stepwise selection of the parental drug sensitive CCRF-CEM (CEM) in the presence of increasing concentrations of VBL; endogenous in cells; host or cells: CEM-VBL10 (UIC2 shift assay) and CEM-VBL100 (doxorubicin efflux assay), MDR variants of CCRF-CEM; key to UIC2 epitope up-modulation (A): the + or ++ symbols indicate arbitrary units in measuring and differentiating the level of UIC2 epitope modulation and doxorubicin retention; the + or ++ symbols indicate arbitrary units in measuring and differentiating the level of UIC2 epitope modulation and doxorubicin retention; details: for mAb UIC2 reactivity: 37°C (Fig 1)
Experimental: as §3
The UIC2 shift assay was performed under physiological conditions as previously described. CEM-VBL10 cells (1 × 10^6) were resuspended in 1 ml of PBS containing 2% FCS and allowed to equilibrate at 37°C in a water bath for 10 min. The various IINs were added to samples (final concentrations 100 or 50 μg/ml) and incubated for additional 15 min at 37°C with purified UIC2 mAb (final concentration 12.5 μg/ml). VBL (10 μg/ml), which is a well known UIC2 shifting agent, and the drug diluents were used as positive and negative controls, respectively. Cells were then washed twice in ice-cold PBS containing 2% FCS with 0.01 % sodium azide (Shift Stop Buffer, SSB), stained on ice in SSB for additional 15 min with 5 μg/ml of fluorescein -conjugated goat-antimouse antibody (FITC-GAM, Cappel, West Chester, Pa, USA), washed twice with ice cold PBS/FACS and maintained in ice until flow cytometry analysis. The UIC2 shift is the difference between UIC2 binding in the presence versus the absence of the IINs under physiological conditions (37°C).

[7] = system: P-gp expression in CEM cells; assay: Induction of P-gp expression in parental drug sensitive CEM cells (flow cytometry); type: cell-based, human; details: 25 μg/ml, 28 days of culture
Description: Similarly to some of the isozymes involved in drug metabolism, the expression of P-gp is inducible. It is therefore important to assess whether P-gp induction occurs upon exposure to IINs, with potential implications for drug metabolism. To this aim, we investigated whether the treatment with the IINs RDS 1974, RDS 1983, RDS 1984 and RDS 1996, all having different biological and physicochemical properties (Table 1), modulate P-gp expression in the human CD4+ CEM cell system. The parental drug sensitive CEM cell line and the revertant of its derivative CEM-VBL10 MDR cell variant (CEMrev), expressing very low or undetectable amount of P-gp, were cultured in the presence of the indicated IINs (10 μg/ml for RDS 1974 and RDS 1996; 25 μg/ml for RDS 1983 and RDS 1984) for 28 days (RDS 1983, RDS 1984 and RDS 1996) or 104 days (RDS 1974). As a control for P-gp modulation, CEMrev cells were exposed to VBL, shown to increase P-gp expression.
The multidrug resistant (MDR) variants CEM-VBL10 and CEM-VBL100 cells were isolated by stepwise selection of the parental drug sensitive CCRF-CEM (CEM) in the presence of increasing concentrations of VBL [31, 32]. Cells were grown under standard conditions for mammalian cells cultured in suspension. […]

H9 cells = assay: Cytotoxicity in HIV infected H9 cell line (trypan blue exclusion); type: cell-based, human; details: 50% Cytotoxic Concentration
Experimental: as §1, §2

T1 sequence (P08183 whole entry): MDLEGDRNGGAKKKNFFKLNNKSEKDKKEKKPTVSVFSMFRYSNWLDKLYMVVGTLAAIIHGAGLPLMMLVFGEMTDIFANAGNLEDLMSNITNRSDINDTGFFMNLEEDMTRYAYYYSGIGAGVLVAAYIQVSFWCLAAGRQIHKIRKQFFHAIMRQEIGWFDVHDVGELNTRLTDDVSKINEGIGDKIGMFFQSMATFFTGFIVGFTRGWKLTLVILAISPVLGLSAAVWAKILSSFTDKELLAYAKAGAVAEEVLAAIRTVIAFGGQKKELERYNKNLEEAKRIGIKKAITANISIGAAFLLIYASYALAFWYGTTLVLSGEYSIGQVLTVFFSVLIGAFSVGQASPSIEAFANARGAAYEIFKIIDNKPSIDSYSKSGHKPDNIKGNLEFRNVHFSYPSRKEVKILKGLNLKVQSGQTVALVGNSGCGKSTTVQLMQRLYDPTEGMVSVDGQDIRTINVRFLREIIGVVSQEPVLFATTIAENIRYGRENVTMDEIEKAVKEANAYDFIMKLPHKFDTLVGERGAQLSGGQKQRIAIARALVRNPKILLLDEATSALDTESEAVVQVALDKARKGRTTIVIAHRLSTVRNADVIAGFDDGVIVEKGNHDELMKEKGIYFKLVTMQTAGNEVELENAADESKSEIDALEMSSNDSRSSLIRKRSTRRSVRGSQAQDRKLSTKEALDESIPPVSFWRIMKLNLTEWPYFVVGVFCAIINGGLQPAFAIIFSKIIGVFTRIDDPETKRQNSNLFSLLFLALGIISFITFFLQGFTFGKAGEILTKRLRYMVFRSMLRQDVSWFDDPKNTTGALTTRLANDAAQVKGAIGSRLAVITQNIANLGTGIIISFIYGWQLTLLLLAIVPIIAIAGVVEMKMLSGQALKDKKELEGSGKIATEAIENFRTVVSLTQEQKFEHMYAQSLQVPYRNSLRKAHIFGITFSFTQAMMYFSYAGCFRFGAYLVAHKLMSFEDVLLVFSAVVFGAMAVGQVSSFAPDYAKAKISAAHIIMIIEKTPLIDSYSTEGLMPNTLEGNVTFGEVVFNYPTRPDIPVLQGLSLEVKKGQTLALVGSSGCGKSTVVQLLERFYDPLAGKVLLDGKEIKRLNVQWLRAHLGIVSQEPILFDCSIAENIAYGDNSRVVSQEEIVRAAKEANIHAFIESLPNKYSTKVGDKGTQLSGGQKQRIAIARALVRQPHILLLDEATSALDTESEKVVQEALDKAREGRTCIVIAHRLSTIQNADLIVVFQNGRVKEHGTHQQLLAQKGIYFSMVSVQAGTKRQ

SMILES: O=C(O)/C(O)=C/C(=O)c1cn(Cc2c(F)cccc2F)c2ccccc2c1=O [RDS 1984]
- IC50 (HIV-1 Integrase (IN)): 0.019 µM
- CC50 at 3 days [1]: > 50 µM
- doxorubicin retention [2]: doxorubicin was retained
- % of P-gp expressing cells ([3]; 25 μg/ml, 28 days of culture): 15–18%
- intracellular accumulation of doxorubicin ([4]; CEM-VBL100 MDR cells, 1 μg/ml to 100 μg/ml (Fig 2)): intracellular accumulation of doxorubicin with a dose dependent effect
- EC50 ([5]; Human immunodeficiency virus 1, 72 h): 9.64 µM
- mAb UIC2 reactivity ([6]; 50 μg/ml): increased
- % of P-gp expressing cells [7]: 0%

SMILES: O=C(O)C(=O)/C=C(\O)c1ccc2c(c1)c(=O)c(/C(O)=C/C(=O)C(=O)O)cn2Cc1ccc(F)cc1 [RDS 1997]
- CC50 (H9 cells): > 50 µM
- Doxorubicin efflux inhibition (B) ([4]; 25 μg/ml): +
- Doxorubicin efflux inhibition (B) ([4]; 50 μg/ml): ++
- EC50 [5]: 2.44 µM
- UIC2 epitope up-modulation (A) ([6]; 50 μg/ml): +
- UIC2 epitope up-modulation (A) ([6]; 100 μg/ml): ++

SMILES: CC[C@]1(O)C[C@@H]2CN(CCc3c([nH]c4ccccc34)[C@@](C(=O)OC)(c3cc4c(cc3OC)N(C)[C@H]3[C@@](O)(C(=O)OC)[C@H](OC(C)=O)[C@]5(CC)C=CCN6CC[C@]43[C@@H]65)C2)C1 [Vinblastine]
- P-gp expression (in words) ([3]; CEMrev cell line, compared with the drug diluent control): strong induction of P-gp expression
- % of P-gp expressing cells ([3]; 10 μg/ml, 28 days of culture): 30–35%
- % of P-gp expressing cells ([3]; 10 μg/ml, 104 days of culture): 60–70%
- mAb UIC2 reactivity ([6]; 10 μg/ml): increased
